Positions of bridges follow the written chain, without caps; N, C: chain ends. Non-standard residues stand in square brackets, D forms with d. Residues, ends and D or L forms follow the SMILES beside them. *: point of attachment. R8 = C=CCCCCCC[C@@](C)(N)C(=O)O; S5 = C=CCCC[C@](C)(N)C(=O)O; Cbz = O=C(OCc1ccccc1)*; CH2F = FC*
Experiments:
SHP-77 cells [1] = conditions: for rescue of Tat-SP4-induced cell death by cell death program inhibitor: 10 μM Tat-SP4, 24 h, trypan blue exclusion; for rescue of Tat-SP4-induced cell death by cell death program inhibitor / rescue of Tat-SP4-induced cell death by uptake pathway inhibitor: n = 3
Protocol: (§1) Cell viability was measured by a trypan blue exclusion assay following the standard protocol provided by the manufacturer. SHP-77 cells and H146 cells were plated into 96-well plates at a density of 2 × 10^4 cells/well. Upon cell attachment, cells were treated with the graded concentrations of Tat-SP4 for 24 h. The IC50 value was calculated from the curve fitted to concentration–response data sets. All experiments were repeated in triplicate, and the mean was calculated. For the 5-day growth curve, cells were seeded into a 24-well plate at 2.5 × 10^4 cells/well for SHP-77 and H146 cells. Cells were treated with 10 μM Tat-SP4. Cells were allowed to grow for up to 5 days post-treatment, and the viable cell number was checked every 24 hours with the trypan blue exclusion assay. For cell death rescue assays, SHP-77 cells were first plated overnight in 96-well plates. Tat-SP4 was added to the cells, together with inhibitors for apoptosis, ferroptosis, necroptosis, or autosis. After 24 h treatment, the cell viability was measured by the trypan blue exclusion assay.
Figure 3 Cell death induced by Tat-SP4 is rescued by an inhibitor of autosis but not by inhibitors for other cell death programs. (A) Flow cytometry analysis using Annexin V FITC-PI staining was conducted on SHP-77 cells after indicated hours of treatment with the Tat-SP4. […] (B) In the absence or presence of Z-VAD-FMK, SHP-77 cells treated with Tat-SP4 or cisplatin for 24 h. (C) SHP-77 cells were pretreated with ferroptosis inhibitor, ferrostatin-1, followed by 10 μM Tat-SP4 or 5 μM Erastin treatment for 24 h. […] (D) SHP-77 cells were treated with Tat-SP4 at 10 μM for 24 h, either in the presence or absence of necrostatin-1, respectively. […] (E) SHP-77 cells were pretreated with digoxin for 2 h, followed by the treatment of Tat-SP4 for 12 h. Cell viability was measured by trypan blue exclusion assay. Data are presented as mean ± SEM (n = 3). ** p < 0.01, **** p < 0.0001; unpaired t-test. TEXT PRINTED IN THE PICTURE: (A) Tat-SP4: Q1-UL 15.9% (10μM; 3h); Dead 30.5% (10μM; 3h); Live 48.8% (10μM; 3h); Apoptotic 4.8% (10μM; 3h); Q1-UL 51.4% (10μM; 6h); Dead 4.7% (10μM; 6h); Live 43.6% (10μM; 6h); Apoptotic 0.2% (10μM; 6h) DOUBTS OF THE COPYIST ABOUT THIS PICTURE: Tat-SP4 3h, Q1-UL 15.9%: very small print, 5 and 9 uncertain / Tat-SP4 3h, Dead 30.5%: very small print, 3 and 5 uncertain / Tat-SP4 3h, Live 48.8%: very small print, partly overlaid by the plot edge, both 8s uncertain / Tat-SP4 3h, Apoptotic 4.8%: very small print, 8 uncertain / Tat-SP4 6h, Q1-UL 51.4%: very small print, 5 uncertain / Tat-SP4 6h, Dead 4.7%: very small print, digits uncertain / Tat-SP4 6h, Live 43.6%: very small print, 3 and 6 uncertain / Tat-SP4 6h, Apoptotic 0.2%: very small print, digits uncertain
Figure 5 The cellular uptake process of Tat-SP4 is energy- and macropinocytosis-dependent. (A) Representative flow cytometry plot of SHP-77 cells stained with Rhod-SP4 at 10 μM at 4 °C, room temperature, and 37 °C for an hour, respectively. The fluorescence intensity of Rhod-SP4 increases with increasing temperature. (B) Mean fluorescence intensity of Rhod-SP4 from (A). The bar graph represents a single experiment without replicates. (C) Representative flow cytometry plot of SHP-77 cells stained with Rhod-SP4 at 10 μM at 37 °C for an hour, in the presence or absence of various inhibitors. AM, Amiloride; MβCD, Methyl-beta cyclodextrin. Cells were pretreated with different inhibitors for 30 min, followed by staining with Rhod-SP4 at 10 μM. (D) Mean fluorescence intensity of Rhod-SP4 from (C). The bar graph represents a single experiment without replicates. (E–G) Assess the effect of different inhibitors of cell-penetrating peptides uptake pathways on Tat-SP4-induced cell death. […] Data are presented as mean ± SEM (n = 3). * p < 0.05; unpaired t-test.

in vitro = conditions: human, Beas-2B cells (normal bronchial epithelial)
Protocol: as §1
(§2) (A) Trypan blue exclusion assay to assess the cytotoxicity IC50 of Tat-SP4 in SHP-77 and H146 cell lines. Cells were treated with Tat-SP4 at a series of concentrations for 24 h. The number of viable cells was determined manually using a hemocytometer and the trypan blue dye exclusion method.

H146 cells = assay: Trypan blue exclusion cell viability assay, 24 h; type: cell-based; conditions: 24 h treatment, triplicate, mean, read-out: cytotoxicity IC50
Protocol: as §1, §2

SHP-77 cells [2] = assay: Trypan blue exclusion cell viability assay, 24 h; type: cell-based; conditions: 24 h treatment, triplicate, mean, read-out: cytotoxicity IC50
Protocol: as §1, §2

SHP-77 xenograft = SHP-77 xenograft model; type: in vivo; conditions: male nude mice, 40 mg/kg/day i.p., heart, liver, spleen, lung, kidney, stomach
Protocol: Animal experiments were carried out according to the guidelines of the Centralized Animal Facilities of the Hong Kong Polytechnic University. Male nude mice, 5–6 weeks in age, were purchased from the Centralized Animal Facilities of the Hong Kong Polytechnic University. Exponentially growing SHP-77 cells were harvested and resuspended in PBS with a concentration of 1 ×10^8 cells per ml. Mixed cell suspensions with Matrigel (Corning) in a 1:1 volume ratio with 5 × 10^5 SHP-77 cells were injected subcutaneously into the right-lower back of the mice. The tumor volume was calculated by the equation of Length × Width × Width/2. Mice were divided randomly into two groups (8 animals/group) when the tumor volume reached 50–60 mm^3. Tat-SP4 was administered intraperitoneally at 40 mg/kg every day, while PBS was administered to mice in the control group. The tumor volume was measured every other day. Treatments were continued until the tumor volume in the mice in the control group reached the maximum volume allowable according to the Centralized Animal Facilities of the Hong Kong Polytechnic University. At the end of the experiment, mice were sacrificed, and both tumors and vital organs were harvested for analysis. Tumor weights were measured after resection. […]
Figure 7 The anti-proliferative efficacy of Tat-SP4 in the SHP-77 xenograft model. […] The tumor volume was recorded every other day. […]

SHP-77 cells [3] = assay: Intracellular Ca2+ imaging with genetically encoded indicators; type: cell-based; conditions: 10 µM digoxin pretreatment 1 h, then 10 µM Tat-SP4
Protocol: Genetically encoded Ca^2+ indicators used in this study include mito-GCaMP5G, cyto-RCaMP1h, and G-CEPIA1er. SHP-77 cells were plated in 6-well plates to allow transfection. Cells were transfected with either mito-GCaMP5G, cyto-RCaMP1h, or G-CEPIA1er cDNA using Lipofectamine 2000 and incubated for 36 h. After transfection, cells were collected and evenly distributed into 24-well plates in HBSS buffer (Gibco) for imaging. Time-lapse fluorescence imaging was performed using an Olympus inverted epifluorescence microscope equipped with a ×20 objective and appropriate excitation/emission filter sets. Images were acquired every 3 s.
To monitor subcellular Ca^2+ dynamics, SHP-77 cells expressing mito-GCaMP5G, cyto-RCaMP1h, or G-CEPIA1er were imaged to capture Ca^2+ fluctuations in the mitochondria, cytosol, and endoplasmic reticulum, respectively. Tat-SP4 or other agonists were applied 60 s after the start of imaging. Fluorescence signals were quantified as ΔF/F0, where ΔF represents the change in fluorescence at each time point and F0 denotes the baseline fluorescence.
(A,B) SHP-77 cells were transfected with cyto-RCaMP1h (A) or mito-GCaAMP5G (B) for 36 h. […] SHP-77 cells were pretreated with 10µM digoxin for 1 h, followed by the stimulation of Tat-SP4.

SHP-77 cells [4] = assay: Seahorse XF Mito Stress Test, oxygen consumption rate; type: cell-based; conditions: digoxin pretreatment followed by Tat-SP4
Protocol: Oxygen consumption in intact cells was assessed using an XFe24 Extracellular Flux Analyzer (Agilent, Santa Clara, CA, USA) following the manufacturer’s standard protocol. Briefly, one day prior to the experiment, an XF24 cell culture microplate was coated with 100 µg/mL poly-lysine and incubated in a CO2 incubator at 37 °C. On the same day, 1 mL of XF calibrant was added to each well of the utility plate to hydrate the sensor, and the XF24 sensor cartridge was incubated overnight in a non-CO2 incubator at 37 °C. On the day of the experiment, the coated XF24 cell culture microplate was washed with PBS and then allowed to air dry. Then, SHP-77 cells were seeded at a density of 1.5 × 10^5 cells per well in the coated XF24 cell culture microplate with the XF assay medium containing 1 mM sodium pyruvate, 2 mM glutamine, and 10 mM glucose and incubated for 1 h in a non-CO2 incubator at 37 °C.
Figure 4 Tat-SP4 impairs mitochondrial function and OXPHOS activity. […] Cells were stained with TMRM for 30 min and analyzed using flow cytometry. […] Fluorescence intensity is directly proportional to the amount of ROS in the cell. (C) OCR was measured using the Mito Stress Test with Agilent Seahorse Analyzer. […] (D) Quantification of basal maximum respiration changes respiration after Tat-SP4 treatment and in (A). **** p < 0.0001. […]

CCOC(=O)c1ccc(NC2CCCCC2)c(N)c1 [Ferrostatin-1]
rescue of Tat-SP4-induced cell death by cell death program inhibitor (SHP-77 cells [1]): did not rescue

CN1C(=O)C(Cc2c[nH]c3ccccc23)NC1=S (stereo not shown) [Necrostatin-1]
rescue of Tat-SP4-induced cell death by cell death program inhibitor (SHP-77 cells [1]): did not rescue

CC(=O)N[C@@H](Cc1ccc(O)cc1)C(=O)NCC(=O)N[C@@H](CCCNC(=N)N)C(=O)N[C@@H](CCCCN)C(=O)N[C@@H](CCCCN)C(=O)N[C@@H](CCCNC(=N)N)C(=O)N[C@@H](CCCNC(=N)N)C(=O)N[C@@H](CCC(N)=O)C(=O)N[C@@H](CCCNC(=N)N)C(=O)N[C@@H](CCCNC(=N)N)C(=O)N[C@@H](CCCNC(=N)N)C(=O)N[C@@H](CCCNC(=N)N)C(=O)N[C@@H](CC(C)C)C(=O)N[C@@H](CO)C(=O)N[C@@H](CCC(=O)O)C(=O)N[C@@H](CC(C)C)C(=O)N[C@]1(C)CCCCCCC=CCCC[C@@](C)(C(=O)N[C@@H](C)C(N)=O)NC(=O)[C@H](CCCNC(=N)N)NC(=O)[C@H](CCC(N)=O)NC(=O)[C@H](CCCCN)NC(=O)[C@H](CCC(=O)O)NC(=O)[C@H](CCCNC(=N)N)NC(=O)[C@H](CC(=O)O)NC1=O [Tat-SP4] (Ac-YGRKKRRQRRRRLSEL[R8]DREKQR[S5]A-NH2; staple 17-24)
IC50 at 24 h (in vitro): 94.9 µM | IC50 (H146 cells): 17.6 µM | IC50 (SHP-77 cells [2]): 7.66 µM | body weight and gross morphology of major organs (SHP-77 xenograft): no abnormal changes

COC(=O)C[C@H](NC(=O)[C@H](C)NC(=O)[C@@H](NC(=O)OCc1ccccc1)C(C)C)C(=O)CF [Z-VAD-FMK] (Cbz-Val-Ala-Asp(OMe)-CH2F)
rescue of Tat-SP4-induced cell death by cell death program inhibitor (SHP-77 cells [1]): had no effect | rescue of cisplatin-induced apoptotic cell death (SHP-77 cells [1]; cisplatin 24 h): rescued

N=C(N)NC(=O)c1nc(Cl)c(N)nc1N [amiloride, Amiloride]
rescue of Tat-SP4-induced cell death by uptake pathway inhibitor (SHP-77 cells [1]): readily rescued cell death

C[C@H]1O[C@@H](O[C@H]2[C@@H](O)C[C@H](O[C@H]3[C@@H](O)C[C@H](O[C@H]4CC[C@@]5(C)[C@H](CC[C@@H]6[C@@H]5C[C@@H](O)[C@]5(C)[C@@H](C7=CC(=O)OC7)CC[C@]65O)C4)O[C@@H]3C)O[C@@H]2C)C[C@H](O)[C@@H]1O [digoxin, Digoxin]
effect on Ca2+ influx triggered by Tat-SP4 (cyto-RCaMP and mito-GCaMP5G) (SHP-77 cells [3]): completely abolished | basal and maximum OCR levels after Tat-SP4 with digoxin pretreatment (SHP-77 cells [4]): comparable to those for untreated controls

Heparin
rescue of Tat-SP4-induced cell death by uptake pathway inhibitor (SHP-77 cells [1]): readily rescued cell death

Methyl-beta-cyclodextrin [MβCD]
rescue of Tat-SP4-induced cell death by uptake pathway inhibitor (SHP-77 cells [1]): showed no such effect

Source: article PMC12736451, “Autophagy-Targeting Stapled Peptide Utilizes Macropinocytosis for Cell Entry to Potentiate Anti-Proliferative Autosis in Small-Cell Lung Cancer” (Pharmaceutics, 2025)
